For 29 molecules, IC50 results are on record in patent publication US20070082880A1 (priority 2005, published 2007).

For this assay, the target named is T1, human PKCθ full length enzyme (Homo sapiens, UniProt Q04759).
T1 construct: human PKCθ full length enzyme (Panvera Catalog No. P2996); purchased Panvera P2996
T1 sequence (Q04759 whole entry): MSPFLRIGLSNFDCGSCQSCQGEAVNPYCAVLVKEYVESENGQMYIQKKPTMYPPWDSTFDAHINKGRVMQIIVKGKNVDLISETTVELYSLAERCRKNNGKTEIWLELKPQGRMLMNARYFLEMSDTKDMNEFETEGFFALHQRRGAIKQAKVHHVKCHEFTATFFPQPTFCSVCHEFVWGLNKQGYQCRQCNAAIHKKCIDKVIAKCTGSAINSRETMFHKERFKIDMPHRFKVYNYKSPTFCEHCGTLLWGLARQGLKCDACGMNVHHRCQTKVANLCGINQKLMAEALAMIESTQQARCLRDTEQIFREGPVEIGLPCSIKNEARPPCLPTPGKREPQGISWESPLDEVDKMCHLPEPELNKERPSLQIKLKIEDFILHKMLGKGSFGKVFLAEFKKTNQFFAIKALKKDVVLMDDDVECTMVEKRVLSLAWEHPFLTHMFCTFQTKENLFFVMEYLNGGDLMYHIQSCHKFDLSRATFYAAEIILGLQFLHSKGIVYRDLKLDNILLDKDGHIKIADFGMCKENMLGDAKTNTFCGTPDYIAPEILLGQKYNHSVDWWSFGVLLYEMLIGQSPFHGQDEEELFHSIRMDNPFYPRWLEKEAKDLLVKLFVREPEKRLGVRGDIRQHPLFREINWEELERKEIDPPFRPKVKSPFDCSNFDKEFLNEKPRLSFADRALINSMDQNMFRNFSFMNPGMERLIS
Put plainly: PKCθ IMAP Assay. It counts as biochemical. As to conditions: average value when one or more samples were tested; ATP 6 uM, PKCθ 1 nM. Here is the method:
The materials used include the following: human PKCθ full length enzyme (Panvera Catalog No. P2996); substrate peptide: 5FAM-[…]-OH (Molecular Devices, RP7032); ATP (Sigma Cat # A2383); DTT (Pierce, 20291); 5× kinase reaction buffer (Molecular Devices, R7209); 5× binding buffer A (Molecular Devices, R7282), 5× binding buffer B (Molecular Devices, R7209); IMAP Beads (Molecular Devices, R7284); and 384-well plates (Corning Costar, 3710).
The reaction buffer was prepared by diluting the 5× stock reaction buffer and adding DTT to obtain a concentration of 3.0 mM. The binding buffer was prepared by diluting the 5× binding buffer A. A master mix solution was prepared using a 90% dilution of the reaction buffer containing 2×ATP (12 uM) and 2× peptide ([…]). […] The final concentration of compound was 2× and 10% DMSO. DMSO was added to the rest of the master mix to increase the concentration to 10%. 10 ul of the master mix containing 10% DMSO was added to the rest of the wells on the plate except the 2nd column. 20 ul was transferred from the first column to the 2nd column. The compounds were serially diluted in 2:1 ratio starting from the 2nd column. A 2× (2 nM) PKCθ solution was made in the reaction buffer. 10 ul of the PKCθ solution was added to every well to achieve these final concentrations: PKCθ—1 nM; ATP—6 uM; peptide—100 nM; DMSO—5%. Samples were incubated for 25 minutes at room temperature. The binding reagent was prepared by diluting the beads in 1× binding buffer to 800:1. 50 ul of the binding reagent was added to every well and incubated for 20 minutes. FP was measured using Envision2100 (PerkinElmer Life Sciences). Wells with no ATPs and wells with no enzymes were used as controls.
For orientation: IC50 means the concentration that inhibits the measured activity by half. Read a high IC50 as a need for much substance. Molecule “2-{3-[2-(dimethylamino)ethyl]phenyl}-4-(1H-indol-5-ylamino)thieno[2,3-b]pyridine-5-carbonitrile [Compound 112]” gave a half-maximal inhibitory concentration (IC50) of 69 nM.

Turning to `CN(C)c1ccc(-c2cc3c(Nc4ccc5[nH]ccc5c4)c(C#N)cnc3s2)cc1` [Compound 111, 2-[4-(dimethylamino)phenyl]-4-(1H-indol-5-ylamino)thieno[2,3-b]pyridine-5-carbonitrile], the 50% inhibitory concentration (IC50) is 370 nM.

Consider `Cc1c(Nc2c(C#N)cnc3sc(-c4ccc(CN(C)C)cc4)cc23)ccc2[nH]ccc12` [Compound 113, 2-{4-[(dimethylamino)methyl]phenyl}-4-[(4-methyl-1H-indol-5-yl)amino]thieno[2,3-b]pyridine-5-carbonitrile], for which the concentration for half-maximal inhibition (IC50) amounted to 14 nM.

Molecule `CN(C)Cc1ccccc1-c1cc2c(Nc3ccc4[nH]ccc4c3)c(C#N)cnc2s1` [Compound 114, 2-{2-[(dimethylamino)methyl]phenyl}-4-(1H-indol-5-ylamino)thieno[2,3-b]pyridine-5-carbonitrile] returned an IC50 of 570 nM.

For the molecule `Cc1c(Nc2c(C#N)cnc3sc(-c4ccc(CN5CCN(C)CC5)cc4)cc23)ccc2[nH]ccc12` [Compound 121, 4-[(4-methyl-1H-indol-5-yl)amino]-2-{4-[(4-methylpiperazin-1-yl)methyl]phenyl}thieno[2,3-b]pyridine-5-carbonitrile], inhibition was half-maximal at 38 nM (IC50).

Regarding `CN(c1ccc2[nH]ccc2c1)c1c(C#N)cnc2sc(-c3ccccc3)cc12` [Compound 122, 4-[1H-indol-5-yl(methyl)amino]-2-phenylthieno[2,3-b]pyridine-5-carbonitrile], the IC50 is over 55000 nM.

In the case of `CCc1c(Nc2c(C#N)cnc3sc(-c4ccccc4)cc23)ccc2[nH]ccc12` [Compound 126, 4-[(4-ethyl-1H-indol-5-yl)amino]-2-phenylthieno[2,3-b]pyridine-5-carbonitrile], the half-maximal inhibitory concentration (IC50) was determined as 830 nM.

`N#Cc1cnc2sc(-c3cccc(CN4CCOCC4)c3)cc2c1Nc1ccc2[nH]ccc2c1` [Compound 146, 4-(1H-indol-5-ylamino)-2-[3-(morpholin-4-ylmethyl)phenyl]thieno[2,3-b]pyridine-5-carbonitrile] displayed an IC50 of 550 nM.

Consider `CN(C)Cc1ccc(-c2cc3c(Nc4ccc5[nH]ccc5c4)c(C#N)cnc3s2)o1` [Compound 153, 2-{5-[(dimethylamino)methyl]-2-furyl}-4-(1H-indol-5-ylamino)thieno[2,3-b]pyridine-5-carbonitrile], for which the 50% inhibitory concentration (IC50) was found to be 170 nM.

In turn, `CN(C)Cc1cc(-c2cc3c(Nc4ccc5[nH]ccc5c4)c(C#N)cnc3s2)co1` [Compound 154, 2-{5-[(dimethylamino)methyl]-3-furyl}-4-(1H-indol-5-ylamino)thieno[2,3-b]pyridine-5-carbonitrile] showed an IC50 of 180 nM.

For `COc1ccc(CN(C)C)cc1-c1cc2c(Nc3ccc4[nH]ccc4c3)c(C#N)cnc2s1` [Compound 155, 2-{5-[(dimethylamino)methyl]-2-methoxyphenyl}-4-(1H-indol-5-ylamino)thieno[2,3-b]pyridine-5-carbonitrile], 38 nM corresponded to half-maximal inhibition (IC50).

For `Cc1c(Nc2c(C#N)cnc3sc(-c4ccccc4CN(C)C)cc23)ccc2[nH]ccc12` [Compound 156, 2-{2-[(dimethylamino)methyl]phenyl}-4-[(4-methyl-1H-indol-5-yl)amino]thieno[2,3-b]pyridine-5-carbonitrile], inhibition was half-maximal at 93 nM (IC50).

`N#Cc1cnc2sc(-c3csc(CN4CC[C@H](O)C4)c3)cc2c1Nc1ccc2[nH]ccc2c1` [Compound 157, 2-(5-{[(3S)-3-hydroxypyrrolidin-1-yl]methyl}-3-thienyl)-4-(1H-indol-5-ylamino)thieno[2,3-b]pyridine-5-carbonitrile] returned an IC50 of 44 nM.

Regarding `N#Cc1cnc2sc(-c3csc(CN4CCC[C@H]4CO)c3)cc2c1Nc1ccc2[nH]ccc2c1` [Compound 158, 2-(5-{[(2S)-2-(hydroxymethyl)pyrrolidin-1-yl]methyl}-3-thienyl)-4-(1H-indol-5-ylamino)thieno[2,3-b]pyridine-5-carbonitrile], the midpoint of inhibition, the IC50, lay at 57 nM.

With `N#Cc1cnc2sc(-c3cccc(CN4CCCC4)c3)cc2c1Nc1ccc2[nH]ccc2c1` [Compound 159, 4-(1H-indol-5-ylamino)-2-[3-(pyrrolidin-1-ylmethyl)phenyl]thieno[2,3-b]pyridine-5-carbonitrile], the 50% inhibitory concentration (IC50) was 240 nM.

`N#Cc1cnc2sc(-c3cccc(CN4CCCCC4)c3)cc2c1Nc1ccc2[nH]ccc2c1` [Compound 160, 4-(1H-indol-5-ylamino)-2-[3-(piperidin-1-ylmethyl)phenyl]thieno[2,3-b]pyridine-5-carbonitrile] yielded an IC50 of 360 nM.

On to `CCN(CC)Cc1cccc(-c2cc3c(Nc4ccc5[nH]ccc5c4)c(C#N)cnc3s2)c1` [Compound 161, 2-{3-[(diethylamino)methyl]phenyl}-4-(1H-indol-5-ylamino)thieno[2,3-b]pyridine-5-carbonitrile], for which the IC50 turned out to be 350 nM.

Molecule `COCCN(C)Cc1cccc(-c2cc3c(Nc4ccc5[nH]ccc5c4)c(C#N)cnc3s2)c1` [Compound 162, 4-(1H-indol-5-ylamino)-2-(3-{[(2-methoxyethyl)(methyl)amino]methyl}phenyl)thieno[2,3-b]pyridine-5-carbonitrile] had an IC50 of 270 nM.

For the molecule `CN(C)CCN1CCN(Cc2cccc(-c3cc4c(Nc5ccc6[nH]ccc6c5)c(C#N)cnc4s3)c2)CC1` [Compound 163, 2-[3-({4-[2-(dimethylamino)ethyl]piperazin-1-yl}methyl)phenyl]-4-(1H-indol-5-ylamino)thieno[2,3-b]pyridine-5-carbonitrile], the 50% inhibitory concentration (IC50) was 130 nM.

Regarding `CN(CCO)Cc1cccc(-c2cc3c(Nc4ccc5[nH]ccc5c4)c(C#N)cnc3s2)c1` [Compound 164, 2-(3-{[(2-hydroxyethyl)(methyl)amino]methyl}phenyl)-4-(1H-indol-5-ylamino)thieno[2,3-b]pyridine-5-carbonitrile], the concentration for half-maximal inhibition (IC50) is 88 nM.

Molecule `COCCNCc1cccc(-c2cc3c(Nc4ccc5[nH]ccc5c4)c(C#N)cnc3s2)c1` [Compound 165, 4-(1H-indol-5-ylamino)-2-(3-{[(2-methoxyethyl)amino]methyl}phenyl)thieno[2,3-b]pyridine-5-carbonitrile] showed an IC50 of 110 nM.

In turn, `CN(C)CCNCc1cccc(-c2cc3c(Nc4ccc5[nH]ccc5c4)c(C#N)cnc3s2)c1` [Compound 166, 2-[3-({[2-(dimethylamino)ethyl]amino}methyl)phenyl]-4-(1H-indol-5-ylamino)thieno[2,3-b]pyridine-5-carbonitrile] registered an IC50 of 160 nM.

The molecule `N#Cc1cnc2sc(-c3cccc(CNCCCO)c3)cc2c1Nc1ccc2[nH]ccc2c1` [Compound 167, 2-(3-{[(3-hydroxypropyl)amino]methyl}phenyl)-4-(1H-indol-5-ylamino)thieno[2,3-b]pyridine-5-carbonitrile] gave an IC50 of 110 nM.

As to `N#Cc1cnc2sc(-c3cccc(CN4CCN(CC(=O)N5CCCC5)CC4)c3)cc2c1Nc1ccc2[nH]ccc2c1` [Compound 168, 4-(1H-indol-5-ylamino)-2-(3-{[4-(2-oxo-2-pyrrolidin-1-ylethyl)piperazin-1-yl]methyl}phenyl)thieno[2,3-b]pyridine-5-carbonitrile], the half-maximal inhibitory concentration (IC50) amounted to 520 nM.

The molecule `N#Cc1cnc2sc(-c3cccc(CN4CCN(Cc5ccncc5)CC4)c3)cc2c1Nc1ccc2[nH]ccc2c1` [Compound 169, 4-(1H-indol-5-ylamino)-2-(3-{[4-(pyridin-4-ylmethyl)piperazin-1-yl]methyl}phenyl)thieno[2,3-b]pyridine-5-carbonitrile] registered a half-inhibitory concentration (IC50) of 840 nM.

Regarding `N#Cc1cnc2sc(-c3cccc(CNCCN4CCOCC4)c3)cc2c1Nc1ccc2[nH]ccc2c1` [Compound 170, 4-(1H-indol-5-ylamino)-2-(3-{[(2-morpholin-4-ylethyl)amino]methyl}phenyl)thieno[2,3-b]pyridine-5-carbonitrile], inhibition was half-maximal at 430 nM (IC50).

In turn, `N#Cc1cnc2sc(-c3cccc(CN4CC[C@H](O)C4)c3)cc2c1Nc1ccc2[nH]ccc2c1` [Compound 171, 2-(3-{[(3S)-3-hydroxypyrrolidin-1-yl]methyl}phenyl)-4-(1H-indol-5-ylamino)thieno[2,3-b]pyridine-5-carbonitrile] yielded a half-maximal inhibitory concentration (IC50) of 110 nM.

Regarding `N#Cc1cnc2sc(-c3cccc(CN4CC[C@@H](O)C4)c3)cc2c1Nc1ccc2[nH]ccc2c1` [Compound 172, 2-(3-{[(3R)-3-hydroxypyrrolidin-1-yl]methyl}phenyl)-4-(1H-indol-5-ylamino)thieno[2,3-b]pyridine-5-carbonitrile], the IC50 stood at 69 nM.

Molecule `N#Cc1cnc2sc(-c3cccc(CN4CCCC(CO)C4)c3)cc2c1Nc1ccc2[nH]ccc2c1` (centres unmarked) [Compound 173, 2-(3-{[3-(hydroxymethyl)piperidin-1-yl]methyl}phenyl)-4-(1H-indol-5-ylamino)thieno[2,3-b]pyridine-5-carbonitrile] returned a half-maximal inhibitory concentration (IC50) of 130 nM.
